Source: patent US5049548A, “Renin-inhibitory di-, tri-, and tetrapeptides” (Merck & Co., Inc., priority 1989, dated 1991)
Square brackets hold non-standard residues; d marks the D form. Peptide text beside a SMILES is read from it. * marks the point of attachment. Sta = CC(C)C[C@H](N)[C@@H](O)CC(=O)O; Isovaleryl = CC(C)CC(=O)*

Columns and labels:
human plasma renin = target: T1, human plasma renin (Homo sapiens, UniProt P00797); assay: Renin-inhibitory potency against human plasma renin; assay type: biochemical
T1 construct: determined against human plasma renin; from tissue; host or cells: human plasma
T1 sequence (P00797 67-406): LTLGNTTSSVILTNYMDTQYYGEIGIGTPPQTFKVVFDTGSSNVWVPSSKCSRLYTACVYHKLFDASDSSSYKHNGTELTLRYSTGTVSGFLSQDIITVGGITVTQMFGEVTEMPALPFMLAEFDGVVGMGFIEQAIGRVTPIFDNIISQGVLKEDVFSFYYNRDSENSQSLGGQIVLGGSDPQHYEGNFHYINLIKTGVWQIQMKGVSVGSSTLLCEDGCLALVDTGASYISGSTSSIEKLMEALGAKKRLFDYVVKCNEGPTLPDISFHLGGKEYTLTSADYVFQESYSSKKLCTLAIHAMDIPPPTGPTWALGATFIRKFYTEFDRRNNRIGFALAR
Description: Renin-inhibitors potencies were determined against human plasma renin and are expressed as IC50 values.

hog renin = conditions: after the injection of hog renin into nephrectomized rats; cited from earlier work

Row | Compound | IC50 (human plasma renin) [nM] | blood pressure in vivo (hog renin)
1 | CCCC[C@H](NC(=O)[C@H](Cc1ccccc1)N(C)[C@@H]1CN2CCC1CC2)C(=O)N[C@@H](CC1CCCCC1)[C@@H](O)CC(=O)N[C@H](C(=O)NCc1ccncc1)[C@@H](C)CC [Example 21, N^α -Methyl-N^α -(quinuclidin-3(S)-yl)Phe-Nle-ACHPA-Ile-NHCH2 (pyridin-4-yl)] | 150 | 
2 | CCCC[C@H](NC(=O)[C@H](Cc1ccccc1)N[C@@H]1CN2CCC1CC2)C(=O)N[C@@H](CC1CCCCC1)[C@@H](O)C(=O)OCC [Example 30, N^α -(Quinuclidin-3(S)-yl)Phe-Nle-norACHPA-OEt] | 91 | 
3 | N^α -(Quinuclidin-3-yl)Phe-His-ACHPA-Ile-NHCH2 (pyridin-4-yl) [Example 24] | 2 | 
4 | [N^α -(N-Methylquinuclidin-3(S)-yl)Phe-His-ACHPA-Ile-NH-CH2 -(pyridin-4-yl)]^+ I^- [Example 23] | 1.7 | 
5 | CCCC[C@H](NC(=O)[C@H](Cc1ccccc1)N[C@@H]1CN2CCC1CC2)C(=O)N[C@@H](CC1CCCCC1)[C@@H](O)CC(=O)N[C@H](C(=O)NCc1ccncc1)[C@@H](C)CC [Example 20, N^α -(quinuclidin-3-yl)Phe-Nle-ACHPA-Ile-AMP] | 5 | 
6 | N^α -[(pyridin-2-yl)methyl]Phe-His-ACHPA-Ile-NHCH2 (pyridin-4-yl) [Example 31] | 7 | 
7 | CC(C)CC(=O)N[C@H](C(=O)N[C@H](C(=O)N[C@@H](CC(C)C)[C@@H](O)CC(=O)N[C@@H](C)C(=O)N[C@@H](CC(C)C)[C@@H](O)CC(=O)O)C(C)C)C(C)C [pepstatin] (Isovaleryl-VV[Sta]A[Sta]-OH) |  | reduces blood pressure in vivo
8 | N^α -(Quinuclidin-3(S)-yl)Phe-His-Cal[CH(OH)CH2 ]Val-NH-n-butyl [Example 27] | 1.4 | 
